Measurements taken from ChEMBL document CHEMBL1201862, “PubChem BioAssay data set” (2004).
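Exposure lasted 48 hours, with cells grown in 96-well plates and compounds tested at five concentrations. At the GI50, growth is halved.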 Active and inactive are the calls of the source. Cut-off read from the data, not from the text of the source: active = GI50 up to about 1.1 µM and inactive = higher.

Legend:
Test in all cases: NCI tumour cell line growth inhibition, 48 h
786-0 = test system: 786-0
A498 = test system: A498
A549 = test system: A549
ACHN = test system: ACHN
CAKI-1 = test system: CAKI-1
CCRF-CEM = test system: CCRF-CEM
COLO 205 = test system: COLO 205
DLD-1 = test system: DLD-1
DMS-114 = test system: DMS-114
DMS-273 = test system: DMS-273
EKVX = test system: EKVX
HCC 2998 = test system: HCC 2998
HCT-116 = test system: HCT-116
HCT-15 = test system: HCT-15
HL-60 = test system: HL-60
HOP-18 = test system: HOP-18
HOP-62 = test system: HOP-62
HT-29 = test system: HT-29
IGROV-1 = test system: IGROV-1
K562 = test system: K562
KM-20L2 = test system: KM-20L2
KM12 = test system: KM12
LOX IMVI = test system: LOX IMVI
LXFL 529 = test system: LXFL 529
M14 = test system: M14
M19-MEL = test system: M19-MEL
MOLT-4 = test system: MOLT-4
Malme-3M = test system: Malme-3M
NCI-H226 = test system: NCI-H226
NCI-H23 = test system: NCI-H23
NCI-H460 = test system: NCI-H460
OVCAR-3 = test system: OVCAR-3
OVCAR-4 = test system: OVCAR-4
OVCAR-5 = test system: OVCAR-5
OVCAR-8 = test system: OVCAR-8
RXF 393 = test system: RXF 393
RXF 631 = test system: RXF 631
SF-268 = test system: SF-268
SF-295 = test system: SF-295
SK-MEL-28 = test system: SK-MEL-28
SK-MEL-2 = test system: SK-MEL-2
SK-MEL-5 = test system: SK-MEL-5
SK-OV-3 = test system: SK-OV-3
SN12C = test system: SN12C
SNB-19 = test system: SNB-19
SNB-75 = test system: SNB-75
SR = test system: SR
SW-620 = test system: SW-620
TK-10 = test system: TK-10
U-251 = test system: U-251
UACC-257 = test system: UACC-257
UACC-62 = test system: UACC-62
UO-31 = test system: UO-31
HOP-92 = test system: HOP-92
NCI-H522 = test system: NCI-H522
RPMI-8226 = test system: RPMI-8226
SNB-78 = test system: SNB-78
SF-539 = test system: SF-539

For `Cc1cccc2c1C/C(=C1\CCc3c(C)cccc31)C2=O`, the GI50 (786-0) was 90.4 µM (inactive), the GI50 (A498) was > 100 µM (inactive) and the GI50 (A549) was > 100 µM (inactive). The GI50 (ACHN) was > 100 µM (inactive), the GI50 (CAKI-1) was > 100 µM (inactive) and the GI50 (CCRF-CEM) was > 100 µM (inactive). For the same molecule, the GI50 (COLO 205) was > 100 µM (inactive), the GI50 (DLD-1) was > 100 µM (inactive) and the GI50 (DMS-114) was > 100 µM (inactive). The GI50 (DMS-273) was > 100 µM (inactive), the GI50 (EKVX) was > 100 µM (inactive) and the GI50 (HCC 2998) was > 100 µM (inactive). The GI50 (HCT-116) was > 100 µM (inactive), the GI50 (HCT-15) was greater than 100 µM and the GI50 (HL-60) was > 100 µM (inactive). For the same molecule, the GI50 (HOP-18) was 38.3 µM (inactive), the GI50 (HOP-62) was > 100 µM (inactive) and the GI50 (HT-29) was > 100 µM (inactive). For the same molecule, the GI50 (IGROV-1) was > 100 µM (inactive), the GI50 (K562) was > 100 µM (inactive) and the GI50 (KM-20L2) was > 100 µM (inactive). The GI50 (KM12) was > 100 µM (inactive), the GI50 (LOX IMVI) was > 100 µM (inactive) and the GI50 (LXFL 529) was > 100 µM (inactive). For the same molecule, the GI50 (M14) was > 100 µM (inactive), the GI50 (M19-MEL) was > 100 µM (inactive) and the GI50 (MOLT-4) was > 100 µM (inactive). For the same molecule, the GI50 (Malme-3M) was > 100 µM (inactive), the GI50 (NCI-H226) was > 100 µM (inactive) and the GI50 (NCI-H23) was > 100 µM (inactive). The GI50 (NCI-H460) was > 100 µM (inactive), the GI50 (OVCAR-3) was > 100 µM (inactive) and the GI50 (OVCAR-4) was 52.6 µM (inactive). The GI50 (OVCAR-5) was > 100 µM (inactive), the GI50 (OVCAR-8) was > 100 µM (inactive) and the GI50 (RXF 393) was > 100 µM (inactive). For the same molecule, the GI50 (RXF 631) was > 100 µM (inactive), the GI50 (SF-268) was > 100 µM (inactive) and the GI50 (SF-295) was > 100 µM (inactive). For the same molecule, the GI50 (SK-MEL-28) was > 100 µM (inactive), the GI50 (SK-MEL-2) was > 100 µM (inactive) and the GI50 (SK-MEL-5) was > 100 µM (inactive). The GI50 (SK-OV-3) was > 100 µM (inactive), the GI50 (SN12C) was > 100 µM (inactive) and the GI50 (SNB-19) was > 100 µM (inactive). For the same molecule, the GI50 (SNB-75) was 80.9 µM (inactive), the GI50 (SR) was > 100 µM (inactive) and the GI50 (SW-620) was > 100 µM (inactive). For the same molecule, the GI50 (TK-10) was > 100 µM (inactive), the GI50 (U-251) was > 100 µM (inactive) and the GI50 (UACC-257) was > 100 µM (inactive). For the same molecule, the GI50 (UACC-62) was > 100 µM (inactive) and the GI50 (UO-31) was > 100 µM (inactive).
In the case of `Cc1ccc(S(=O)(=O)N/N=C\c2c3ccccc3[n+]([O-])c3ccccc23)cc1`, the GI50 (786-0) is reported as 2.01 µM (inactive), the GI50 (A498) is reported as 3.8 µM (inactive) and the GI50 (A549) is reported as 5.12 µM (inactive). The GI50 (ACHN) was 2.7 µM (inactive), the GI50 (CAKI-1) was 6.28 µM (inactive) and the GI50 (CCRF-CEM) was 0.476 µM (active). The GI50 (COLO 205) was 2.72 µM (inactive), the GI50 (DLD-1) was 2.65 µM (inactive) and the GI50 (DMS-114) was 3.37 µM (inactive). For the same molecule, the GI50 (DMS-273) was 3.41 µM (inactive), the GI50 (EKVX) was 20 µM (inactive) and the GI50 (HCC 2998) was 8.57 µM (inactive). For the same molecule, the GI50 (HCT-116) was 0.472 µM (active), the GI50 (HCT-15) was 0.989 µM and the GI50 (HL-60) was 0.889 µM (active). For the same molecule, the GI50 (HOP-18) was 6.76 µM (inactive), the GI50 (HOP-62) was 5.38 µM (inactive) and the GI50 (HOP-92) was 3.68 µM (inactive). For the same molecule, the GI50 (HT-29) was 1.63 µM (inactive), the GI50 (IGROV-1) was 9.25 µM (inactive) and the GI50 (K562) was 0.36 µM (active). The GI50 (KM-20L2) was 2.96 µM (inactive), the GI50 (KM12) was 9.55 µM (inactive) and the GI50 (LOX IMVI) was 1.08 µM (active). The GI50 (LXFL 529) was 0.935 µM (active), the GI50 (M14) was 4.57 µM (inactive) and the GI50 (M19-MEL) was 7.67 µM (inactive). For the same molecule, the GI50 (MOLT-4) was 0.612 µM (active), the GI50 (Malme-3M) was 12.2 µM (inactive) and the GI50 (NCI-H226) was 4.54 µM (inactive). The GI50 (NCI-H23) was 4.48 µM (inactive), the GI50 (NCI-H460) was 2.44 µM (inactive) and the GI50 (NCI-H522) was 2.02 µM (inactive). The GI50 (OVCAR-3) was 16.1 µM (inactive), the GI50 (OVCAR-4) was 10.8 µM (inactive) and the GI50 (OVCAR-5) was 14.7 µM (inactive). For the same molecule, the GI50 (OVCAR-8) was 4.03 µM (inactive), the GI50 (RPMI-8226) was 0.415 µM (active) and the GI50 (RXF 631) was 3.01 µM (inactive). For the same molecule, the GI50 (SF-268) was 4.23 µM (inactive), the GI50 (SF-295) was 6.76 µM (inactive) and the GI50 (SK-MEL-28) was 3.78 µM (inactive). The GI50 (SK-MEL-2) was 4.41 µM (inactive), the GI50 (SK-MEL-5) was 5.21 µM (inactive) and the GI50 (SK-OV-3) was 14.7 µM (inactive). For the same molecule, the GI50 (SN12C) was 4.59 µM (inactive), the GI50 (SNB-19) was 11.9 µM (inactive) and the GI50 (SNB-75) was 3.44 µM (inactive). For the same molecule, the GI50 (SNB-78) was 6.71 µM (inactive), the GI50 (SW-620) was 2.18 µM (inactive) and the GI50 (TK-10) was 4.9 µM (inactive). For the same molecule, the GI50 (U-251) was 3.93 µM (inactive), the GI50 (UACC-257) was 9.95 µM (inactive) and the GI50 (UACC-62) was 5.55 µM (inactive). For the same molecule, the GI50 (UO-31) was 14.1 µM (inactive).
With `CN(C)CCC1(C2=CCCC2)CC/C(=C\c2ccc3c(c2)OCO3)C1=O` (configuration not stated) the GI50 (786-0) was 14 µM (inactive), the GI50 (A498) was 12.2 µM (inactive) and the GI50 (A549) was 16 µM (inactive). The GI50 (ACHN) was 16.1 µM (inactive), the GI50 (CCRF-CEM) was 16 µM (inactive) and the GI50 (COLO 205) was 18.7 µM (inactive). For the same molecule, the GI50 (DLD-1) was 17.1 µM (inactive), the GI50 (DMS-114) was 14.8 µM (inactive) and the GI50 (EKVX) was 15.8 µM (inactive). For the same molecule, the GI50 (HCC 2998) was 15.8 µM (inactive), the GI50 (HCT-116) was 13.2 µM (inactive) and the GI50 (HCT-15) was 13.9 µM. The GI50 (HL-60) was 14.3 µM (inactive), the GI50 (HOP-18) was 13.6 µM (inactive) and the GI50 (HOP-92) was 11.4 µM (inactive). The GI50 (HT-29) was 12.2 µM (inactive), the GI50 (IGROV-1) was > 10 µM (inactive) and the GI50 (K562) was 11.5 µM (inactive). The GI50 (KM-20L2) was 14.2 µM (inactive), the GI50 (KM12) was 15.8 µM (inactive) and the GI50 (LXFL 529) was 12.9 µM (inactive). The GI50 (M14) was 14.7 µM (inactive), the GI50 (M19-MEL) was 18.6 µM (inactive) and the GI50 (MOLT-4) was 12.3 µM (inactive). For the same molecule, the GI50 (Malme-3M) was 15.6 µM (inactive), the GI50 (NCI-H23) was 18.4 µM (inactive) and the GI50 (NCI-H460) was 18.4 µM (inactive). For the same molecule, the GI50 (OVCAR-3) was 15.8 µM (inactive), the GI50 (OVCAR-4) was 13.5 µM (inactive) and the GI50 (OVCAR-5) was 15.8 µM (inactive). The GI50 (OVCAR-8) was 15.6 µM (inactive), the GI50 (RPMI-8226) was 23.7 µM (inactive) and the GI50 (RXF 393) was 9.14 µM (inactive). The GI50 (RXF 631) was 15.2 µM (inactive), the GI50 (SF-268) was 14.4 µM (inactive) and the GI50 (SF-295) was 16 µM (inactive). For the same molecule, the GI50 (SF-539) was 16 µM (inactive), the GI50 (SK-MEL-28) was 14.3 µM (inactive) and the GI50 (SK-MEL-2) was 16.9 µM (inactive). For the same molecule, the GI50 (SK-MEL-5) was 14.1 µM (inactive), the GI50 (SN12C) was 14.5 µM (inactive) and the GI50 (SNB-19) was 18.2 µM (inactive). For the same molecule, the GI50 (SNB-78) was 16.8 µM (inactive), the GI50 (SW-620) was 15.8 µM (inactive) and the GI50 (TK-10) was 15.8 µM (inactive). The GI50 (U-251) was 15.6 µM (inactive), the GI50 (UACC-257) was 15.5 µM (inactive) and the GI50 (UACC-62) was 21.5 µM (inactive). The GI50 (UO-31) was 7.52 µM (inactive).
